Read-outs that look alike come from different tables or passages of the source.
Molecular target: T1, chimeric human H3 receptor (Homo sapiens, UniProt Q9Y5N1, E19D)
T1 construct: made in house; host or cells: Sf9 insect cells (baculovirus infection); P2 membrane preparation
Assay: Chimeric human H3 receptor GTP binding assay (agonist-stimulated GTP-gamma35S binding, Example 7)
Assay type: biochemical
Conditions: read-out: Ki
Summary of the method: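 Sf9 membranes co-expressing the chimeric receptor and heterotrimeric G-protein subunits, 35 μg protein per tube, in pH 7.4 Tris buffer with 10 μM GDP. Test compounds at 10^−10 to 10^−6 M with 1 μM histamine, 60 min at room temperature. Filter-bound GTP-gamma^35S read by scintillation; IC50 from non-linear regression of dose-response curves.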

[1] = assay of Example 7, symbol * in column headed Ki of Table II
[2] = assay of Example 7, "*" in Ki of Table II
[3] = Table II, "*" in Ki, assay of Example 7
[4] = Table II, assay of Example 7, "*" in Ki
[5] = Table II "Ki", symbol "*": Ki in the assay of Example 7
[6] = "*" in Ki of Table II, assay of Example 7

T1 sequence (Q9Y5N1 with tags, fused parts or gaps E19D): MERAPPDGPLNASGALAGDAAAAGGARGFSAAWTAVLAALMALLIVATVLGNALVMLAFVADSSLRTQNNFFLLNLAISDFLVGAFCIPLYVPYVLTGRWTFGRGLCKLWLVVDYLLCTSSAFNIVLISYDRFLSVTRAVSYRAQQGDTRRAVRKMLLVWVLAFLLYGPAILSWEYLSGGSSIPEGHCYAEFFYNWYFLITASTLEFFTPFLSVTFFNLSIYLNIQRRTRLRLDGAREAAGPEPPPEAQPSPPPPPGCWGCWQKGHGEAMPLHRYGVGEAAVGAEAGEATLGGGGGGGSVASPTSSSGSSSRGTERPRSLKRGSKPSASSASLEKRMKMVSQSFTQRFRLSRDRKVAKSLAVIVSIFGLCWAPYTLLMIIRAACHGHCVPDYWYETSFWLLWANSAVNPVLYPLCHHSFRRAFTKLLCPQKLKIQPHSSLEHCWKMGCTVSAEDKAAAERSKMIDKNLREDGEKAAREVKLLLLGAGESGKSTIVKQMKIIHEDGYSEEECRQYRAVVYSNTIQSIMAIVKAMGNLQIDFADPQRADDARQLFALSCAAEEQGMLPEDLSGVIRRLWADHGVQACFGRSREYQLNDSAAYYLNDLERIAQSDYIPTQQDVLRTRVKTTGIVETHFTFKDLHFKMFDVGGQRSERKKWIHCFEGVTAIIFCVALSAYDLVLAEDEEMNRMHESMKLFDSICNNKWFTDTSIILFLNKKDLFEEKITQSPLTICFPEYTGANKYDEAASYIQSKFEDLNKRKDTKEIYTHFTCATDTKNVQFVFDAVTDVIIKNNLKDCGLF

CCN(CC)C1CCN(CC(=O)N2CCN(C3CCCC3)CC2)C1 (stereo not shown) [Compound 443, 1-[2-(4-cyclopentylpiperazin-1-yl)-2-oxoethyl]-N,N-diethylpyrrolidin-3-amine]
Ki [1]: < 1000 nM

O=C(CN1CCN(c2ccc(-c3ccc(Cl)cc3)cc2)CC1)N1CCN(C2CCC2)CC1 [Compound 355, 1-(4′-chlorobiphenyl-4-yl)-4-[2-(4-cyclobutylpiperazin-1-yl)-2-oxoethyl]piperazine]
Ki [1]: < 1000 nM

CCOC(=O)c1cccc(-c2ccc(N3CCN(CC(=O)N4CCN(C5CCC5)CC4)CC3)cc2)c1 [Compound 1200, ethyl 4′-{4-[2-(4-cyclobutylpiperazin-1-yl)-2-oxoethyl]piperazin-1-yl}biphenyl-3-carboxylate]
Ki [2]: < 1000 nM

O=C(CC1CCCCC1)NC1CCN(CC(=O)N2CCN(C3CCC3)CC2)C1 (stereo not shown) [Compound 1249, N-{1-[2-(4-cyclobutylpiperazin-1-yl)-2-oxoethyl]pyrrolidin-3-yl}-2-cyclohexylacetamide]
Ki [2]: < 1000 nM

O=C(CN1CCN(c2ccc(-c3cc(F)ccc3F)cc2)CC1)N1CCN(C2CCC2)CC1 [Compound 685, 1-cyclobutyl-4-{[4-(2′,5′-difluorobiphenyl-4-yl)piperazin-1-yl]acetyl}piperazine]
Ki [3]: < 1000 nM

CC(C)c1ccccc1-c1ccc(N2CCN(CC(=O)N3CCN(C4CCC4)CC3)CC2)nn1 [Compound 1058, 3-{4-[2-(4-cyclobutylpiperazin-1-yl)-2-oxoethyl]piperazin-1-yl}-6-(2-isopropylphenyl) pyridazine]
Ki [4]: < 1000 nM

CCS(=O)(=O)c1ccc(N2CCN(CC(=O)N3CCN(C4CCC4)CC3)CC2)cc1 [Compound 597, 1-cyclobutyl-4-({4-[4-(ethylsulfonyl)phenyl]piperazin-1-yl}acetyl)piperazine]
Ki [3]: < 1000 nM

Cc1cc(-c2cnc(N3CCN(CC(=O)N4CCN(C5CCC5)CC4)CC3)cn2)ccc1F [Compound 923, 2-{4-[2-(4-cyclobutylpiperazin-1-yl)-2-oxoethyl]piperazin-1-yl}-5-(4-fluoro-3-methylphenyl)pyrazine]
Ki [5]: < 1000 nM

O=C(NC1CCCCCC1)c1ccc(N2CCN(CC(=O)N3CCN(C4CCC4)CC3)CC2)nc1 [Compound 1185, 6-{4-[2-(4-cyclobutylpiperazin-1-yl)-2-oxoethyl]piperazin-1-yl}-N-cycloheptylnicotinamide]
Ki [2]: < 1000 nM

O=C(CN1CCN(c2ccc(-c3cc(C(F)(F)F)cc(C(F)(F)F)c3)nn2)CC1)N1CCN(C2CCC2)CC1 [Compound 998, 3-[3,5-bis(trifluoromethyl)phenyl]-6-{4-[2-(4-cyclobutylpiperazin-1-yl)-2-oxoethyl]piperazin-1-yl}pyridazine]
Ki [4]: < 1000 nM

CC1CCN(C2CCN(CC(=O)N3CCN(C4CCCCC4)CC3)CC2)CC1 [Compound 439, 1′-[2-(4-cyclohexylpiperazin-1-yl)-2-oxoethyl]-4-methyl-1,4′-bipiperidine]
Ki [1]: < 1000 nM

O=C(CN1CCN(c2ccc(-c3cc(C(F)(F)F)ccc3Cl)cc2)CC1)N1CCN(C2CCC2)CC1 [Compound 453, 1-[2′-chloro-5′-(trifluoromethyl)biphenyl-4-yl]-4-[2-(4-cyclobutylpiperazin-1-yl)-2-oxoethyl]piperazine]
Ki [6]: < 1000 nM

CC(=O)c1ccc(N2CCN(CC(=O)N3CCN(C4CCC4)CC3)CC2)c2ccccc12 [Compound 310, 1-(4-{4-[2-(4-cyclobutylpiperazin-1-yl)-2-oxoethyl]piperazin-1-yl}-1-naphthyl)ethanone]
Ki [1]: < 1000 nM

O=C(CN1CCN(c2ccc(-c3ccccc3F)nn2)CC1)N1CCN(C2CCC2)CC1 [Compound 1005, 3-{4-[2-(4-cyclobutylpiperazin-1-yl)-2-oxoethyl]piperazin-1-yl}-6-(2-fluorophenyl)pyridazine]
Ki [4]: < 1000 nM

O=C(CN1CCN(c2ccc(-c3ccc(C(F)(F)F)cc3)cc2)CC1)N1CCN(C2CCC2)CC1 [Compound 606, 1-cyclobutyl-4-({4-[4′-(trifluoromethyl)biphenyl-4-yl]piperazin-1-yl}acetyl)piperazine]
Ki [3]: < 1000 nM

CC(=O)c1cnc(N2CCN(CC(=O)N3CCN(C4CCC4)CC3)CC2)cn1 [Compound 362, 1-(5-{4-[2-(4-cyclobutylpiperazin-1-yl)-2-oxoethyl]piperazin-1-yl}pyrazin-2-yl)ethanone]
Ki [1]: < 1000 nM

O=C(CN1CCN(c2ccc(Br)cc2)CC1)N1CCN(C2CCCCC2)CC1 [Compound 338, 1-(4-bromophenyl)-4-[2-(4-cyclohexylpiperazin-1-yl)-2-oxoethyl]piperazine]
Ki [1]: < 1000 nM

Cc1ccc(N2CCN(CC(=O)N3CCN(C4CCC4)CC3)CC2C)cc1 (stereo not shown) [Compound 1105, 4-[2-(4-cyclobutylpiperazin-1-yl)-2-oxoethyl]-2-methyl-1-(4-methylphenyl)piperazine]
Ki [4]: < 1000 nM

COc1ccc(F)cc1-c1ccc(N2CCN(CC(=O)N3CCN(C4CCC4)CC3)CC2)cc1 [Compound 792, 1-cyclobutyl-4-{[4-(5′-fluoro-2′-methoxybiphenyl-4-yl)piperazin-1-yl]acetyl}piperazine]
Ki [5]: < 1000 nM

O=C(CN1CCN(c2ccc(-c3cc(F)ccc3F)nn2)CC1)N1CCN(C2CCC2)CC1 [Compound 1048, 3-{4-[2-(4-cyclobutylpiperazin-1-yl)-2-oxoethyl]piperazin-1-yl}-6-(2,5-difluorophenyl)pyridazine]
Ki [4]: < 1000 nM

COc1ccc2cc(-c3cnc(N4CCN(CC(=O)N5CCN(C6CCC6)CC5)CC4)cn3)ccc2c1 [Compound 941, 2-{4-[2-(4-cyclobutylpiperazin-1-yl)-2-oxoethyl]piperazin-1-yl}-5-(6-methoxy-2-naphthyl)pyrazine]
Ki [4]: < 1000 nM

COc1ccc(N2CCN(CC(=O)N3CCN(C4CCCC4)CC3)CC2)cc1 [Compound 839, 1-cyclopentyl-4-{[4-(4-methoxyphenyl)piperazin-1-yl]acetyl}piperazine]
Ki [5]: < 1000 nM

O=C(CN1CCN(c2cnc(-c3cc(F)cc(F)c3)cn2)CC1)N1CCN(C2CCC2)CC1 [Compound 965, 2-{4-[2-(4-cyclobutylpiperazin-1-yl)-2-oxoethyl]piperazin-1-yl}-5-(3,5-difluorophenyl)pyrazine]
Ki [4]: < 1000 nM

O=C1CCc2cc(N3CCC(C(=O)OCC(=O)N4CCN(C5CCCC5)CC4)CC3)ccc21 [Compound 907, 2-(4-cyclopentylpiperazin-1-yl)-2-oxoethyl 1-(1-oxo-2,3-dihydro-1H-inden-5-yl)piperidine-4-carboxylate]
Ki [5]: < 1000 nM

O=C(CN1CCN(c2cnc(-c3cc(Cl)ccc3Cl)cn2)CC1)N1CCN(C2CCC2)CC1 [Compound 973, 2-{4-[2-(4-cyclobutylpiperazin-1-yl)-2-oxoethyl]piperazin-1-yl}-5-(2,5-dichlorophenyl)pyrazine]
Ki [4]: < 1000 nM

CC(=O)N1CCN(CC(=O)N2CCN(C3CCC3)CC2)CC1 [Compound 483, 1-acetyl-4-[2-(4-cyclobutylpiperazin-1-yl)-2-oxoethyl]piperazine]
Ki [6]: < 1000 nM

CCC(C)N1CCN(C(=O)CN2CCN(c3cc(C)ccc3C)CC2)CC1 (stereo not shown) [Compound 864, 1-sec-butyl-4-{[4-(2,5-dimethylphenyl)piperazin-1-yl]acetyl}piperazine]
Ki [5]: < 1000 nM

CC(C)N1CCN(C(=O)CN2CCN(c3ccc(F)cc3F)CC2)CC1 [Compound 264, 1-(2,4-difluorophenyl)-4-[2-(4-isopropylpiperazin-1-yl)-2-oxoethyl]piperazine]
Ki [1]: < 1000 nM

— US7851474B2, “Dipiperazinyl ketones and related analogues” (Neurogen Corporation, priority 2005, dated 2010)
